{"source": "patent US20250320506A1", "about": "“ULTR[…] M[…]-FREE […] CASCADED AMP[…] POSITIVE FEEDBACK” (Northwestern University, priority 2019, published 2025)", "key": {"[1]": {"system": "cell-free protein synthesis", "assay": "titration of analyte against an unregulated reporter plasmid (pT7-sfGFP) in a cell-free gene expression reaction", "type": "biochemical, E. coli", "settings": "100 μM CuSO4; transcription and translation in vitro", "text": "FIG. 4A-D. FIG. 4 illustrates various aspects of the biosensors of the present disclosure. (A) The “enriched” extract that contains the allosteric transcription factor can be mixed against a “blank” unenriched extract to modulate the concentration of the transcription factor in the reaction. (B) For tighter control and specificity of a cascaded system, if T7 RNA polymerase is used to drive expression of the allosteric transcription factor in the host strain of extract, an engineered variant of T7 RNAP may be used as the output of the regulated promoter. Exemplary T7 RNAP mutants are illustrated. […] The E. coli RNAP is used to express four T7 RNAP variants from a mock sensor plasmid (5 nM) that contains the consensus E. coli promoter J23119. The corresponding reporter plasmid is added at 5 nM. The kinetics of T7 RNAP synthesis lead to a time delay of about 20-30 minutes relative to a reaction that uses purified WT T7 RNAP. […] Reporter yields are from triplicates of four-hour sfGFP yields on a plate reader at 30° C. […]\nA series of tuning experiments are next used to optimize the sensor. […] This experiment is an isothermal cell-free gene expression reaction held at 30° C. in a plate reader for ˜4 hours using an established set of physiochemical conditions to maximize protein production in general. […]"}, "lead sensor": {"system": "lead sensor", "assay": "crosstalk between four metal-sensing aTFs using cell-free response", "type": "biochemical", "settings": "heatmap", "text": "FIG. 21. Design of mitigating cross-talk of sensors. Experimental measurement of crosstalk between four metal-sensing aTFs using cell-free response. Heatmap is colored more brightly to indicate stronger fluorescent signal."}}}
{"smiles": "O=S(=O)([O-])[O-].[Cu+2]", "note": "[CuSO4]", "values": [{"measurement": "effect on cell-free protein synthesis", "setting": "[1]", "result": "shuts down cell-free protein synthesis"}]}
{"smiles": "[Cd]", "note": "[cadmium]", "values": [{"measurement": "crosstalk (fluorescent signal) of metal-sensing aTF sensor with non-cognate metal", "setting": "lead sensor", "result": "crosstalk for the lead sensor with cadmium"}]}
